Test results: patent publication US20070105810A1, “THERAPEUTICS” (priority 2003, published 2007)
“Also recorded” adds a separate entry of the source.

Tested on: cytokine production (IL-2, IFNγ, TNFα, IL-2 receptor mRNA)
Assay: Quantitative PCR of cytokine mRNA in spinal cord and spleen of EAE animals
Type: in vivo, rat
Conditions: spinal cord tissue 4 days after T cell transfer; BZ194 5 d, 500 μmol; relative to β actin and CD3
Experimental: Quantitative PCR of spinal cords and spleens 4 days after T cell transfer of animals treated with vehicle (DMSO) of BZ 194 (5 d, 500 μmol). IFNg A,B and IL-2 C,D mRNAs were measured in relation to housekeeping gene β actin A,C or T cell marker CD3 B,D.
mRNA was extracted using standard protocols (Sigma-Aldrich) and reversed to cDNA (Invitrogen). Taqman analysis was performed as reported (Flügel et al. 2001, Immunity) using ABI Prim 7700 Sequence Detector “Taqman” (PE Applied Biosystems). The expression of a housekeeping gene (b-actin) was set into relation to the specific mRNA. Data were obtained by independent duplicate measurements.

Q: For `CCCCCCCCNC(=O)C[n+]1cccc(C(=O)O)c1.[Br-]` [BZ194, 3-Carboxy-1-Octylcarbamoylmethyl-Pyridinium], which “cytokine (mRNA) production ex vivo” value is on record?
A: The value was “suppressed; also recorded: significant reduction”.
